From US20250011878A1, “METHOD TO DETECT RNA BIOMARKERS” (ITALFARMACO SPA, priority 2021, published 2025)

Legend:
[1] = clinical data; cited from earlier work
[2] = tested on: human monocytes; experiment: RNAseq gene expression in purified human monocytes treated with ITF3756 and/or TNF-α; assay type: cell-based
From the text: PBMCs used for the experiments were obtained from Buffy Coats of healthy donors (all samples tested negative for transmissible diseases as required for blood transfusion) separated over a Ficoll-Hypaque gradient (Biochrom). Monocytes were purified by negative selection from 100×10^6 PBMC using Pan Monocytes Isolation Kit (Milteny) following manufacturer's instructions. By Pan Monocyte Isolation kit untouched monocytes are isolated from human PBMCs and the simultaneous enrichment of classical (CD14^++CD16^−), non classical (CD14^+CD16^++) and intermediate (CD14^++CD16^+) monocytes is achieved. Non-monocytes, such as T cells, NK cells, B cells, dendritic cells, and basophils are indirectly magnetically labeled using a cocktail of biotin-conjugated antibodies and anti-Biotin MicroBeads. Briefly, 400 μL of Buffer (PBS 1×, 0.5% BSA and 2 mM EDTA), 100 μL of FcR Blocking Reagent and 100 μL of Biotin-Antibody Cocktail were added to PBMC, previously washed with PBS by centrifugation 300×g for 5 minutes, mixed and incubate for 5 minutes in the refrigerator (2-8° C.). After incubation, 300 μL of Buffer and 200 μL of anti-biotin microbeads were added to the cells, mixed and incubate further for 10 minutes in the refrigerator. After incubation cells were processed by subsequent magnetic cell separation. Cell suspension was applied onto the column and the flow-through containing unlabeled cells, representing the enriched monocytes, was collected. Purified monocytes were washed with Buffer by centrifugation 300×g for 5 minutes and counted in PBS. Purified monocytes (1,0×10^6/ml) were pre-treated for 2 h with ITF3756 1 μM or DMSO (0.005%) in 12-well plates in 1 ml final volume of complete medium (RPMI (Biochrom), FCS 10% and penicillin/streptomycin 1× (Sigma)). The cells were then stimulated or not with TNF-α (100 ng/mL, Peprotech) for 4h. After incubation with ITF3756 and TNF-α, the cells were collected, washed with PBS by centrifugation 300×g for 5 minutes and stored at −80° C. Samples were thawed on the bench for 2 minutes and total RNA was extracted with Trizol reagent (Thermo Fisher Scientific), following manufacturer's instructions. Briefly, Trizol reagent (0.75 ml Trizol per 5-10×10^6 cells) was added to the samples and the samples were incubated at room temperature (RT) for 5 minutes. After incubation, chloroform (150 μL per 0.75 mL Trizol) was added to the samples and after 3 minutes of incubation at RT, samples were centrifuged for 12000×g for 14 minutes at 4° C. After centrifugation, the mixture separates into 3 phases and RNA remains in the aqueous phase. The aqueous phase was removed for each sample and placed in new tubes, and isopropanol (0,375 ml per 0.75 ml of Trizol) was added in each tube. Samples was incubated for 30 minutes in the refrigerator (2-8° C.). After incubation, samples were centrifugated for 12000×g for 10 minutes at 4° C., the supernatant was removed and 75% ethanol (0.75 ml per 0.75 ml of Trizol) was added to samples. Samples were centrifuged for 7500×g for 5 minutes at 4° C., and the supernatant discarded. RNA was air dried on the bench for 5-10 minutes. RNA Samples was then resuspended in water (10-50 μL). The scheme of the experimental procedures carried out to generate the RNA sequence data is represented in FIG. 1. To determine the quantity and the integrity/purity of RNA samples, check controls were first performed by the Agilent Technologies 2100 Bioanalyzer using RNA 6000 LabChip® kit (Agilent #5067-1511). The Bioanalyzer is a bio-analytical device based on a combination of microfluidic chips, voltage-induced size separation in gel filled channels and laser-induced fluorescence (LIF) detection on a miniaturized scale. The RNA Integrity Number (RIN) software algorithm allows the classification of total RNA, based on a numbering system from 1 to 10, (with 1 being the most degraded and 10 being the most intact). […] Purified samples were processed using TruSeq RNA-Seq v2 Library Preparation Kit. […]

[3] = single treatment (ITF3756 1 μM or TNF-α 100 ng/mL), RNAseq, vs control
[4] = single treatment vs vehicle-treated control (don), monocytes 4 h, padj<0.05

Compound | tolerability in patients [1] | ADA gene expression [2, 3] | IRF6 gene expression [2, 3] | LTBP4 gene expression [2, 3] | MMP9 gene expression ([2]; single treatment (ITF3756 1 μM or TNF-α 100 ng/mL), RNAseq, vs untreated control) | PD-L1 gene expression ([2]; single treatment (TNF-α 100 ng/mL 4 h), vs control) | Genes Down regulated (number of genes modulated) [2, 4] | Genes Up regulated (number of genes modulated) [2, 4]
O=C(NO)c1ccc(CN(c2cnccn2)c2cnccn2)cc1 [KA2507] | very well tolerated |  |  |  |  |  |  | 
O=C(CCCCCCNC(=O)c1cnc(N(c2ccccc2)c2ccccc2)nc1)NO [Ricolinostat] | very well tolerated |  |  |  |  |  |  | 
TNF-α [reference compound] |  | upregulation | no effect | downregulated by two fold | No modulation | strongly upregulated | 1688 | 1563
